Assay results from paper PMC5735979, “Total Coumarins from Hydrangea paniculata Show Renal Protective Effects in Lipopolysaccharide-Induced Acute Kidney Injury via Anti-inflammatory and Antioxidant Activities” (Frontiers in Pharmacology, 2017).

Tests used:
[1] = tested on: streptozotocin-induced diabetic nephropathy; design: method as in Zhang et al., 2012; details: ref Zhang et al., 2012; cited from earlier work
[2] = tested on: cationized BSA-induced membranous glomerulitis; design: method as in Zhang et al., 2013; details: ref Zhang et al., 2013; cited from earlier work
[3] = Pharmacokinetics study after single oral dose of HP; format: in vivo, C57BL/6 mice; details: male, C57BL/6, mouse, in vivo, mice, n = 5
Protocol: All of the animals were fasted for 12 h before receiving HP and were then allowed to eat for 4 h after administration. The dosing solutions used for the animal studies were prepared by dissolving the required amounts of HP in distilled water. […] The plasma was separated and stored at 2–8°C until analysis. […] Louis, MO, USA) and then mixed with 180 μL of acetonitrile (Merck, Darmstadt, Germany) to precipitate protein. After centrifugation, aliquots (10 μL each) of the supernatant were used for analysis. […] The mobile phase consisted of solvent A [0.1% formic acid (Dikma Technologies, Inc., CA, USA) in water] and solvent B [0.1% formic acid in methanol (Merck)]. The analytes were eluted at a flow rate of 0.2 mL/min, with the following gradient elution: from 0 to 0.6 min, 20% B; linear increase to 95% B in 0.2 min; 95% B for 4 min, decrease to 20% B in 0.2 min; and stabilization at initial conditions for 6 min. The mass spectrometer was set for multiple reaction monitoring and was operated in a positive-ion mode with an electrospray ionization source. Nitrogen was used as the curtain gas and the collision gas. The ion-spray voltage was set at 5,500 V, and the gas temperature at 500°C.

[4] = plasma, single oral dose of 50 mg/kg HP

## O=c1ccc2ccc(O[C@@H]3O[C@H](CO)[C@@H](O)[C@H](O)[C@H]3O)cc2o1 [Skimmin, skimmin]
[1]
  progression of streptozotocin-induced diabetic nephropathy: could slow the progression
[2]
  progression of cationized BSA-induced membranous glomerulitis: could slow the progression
[3]; 0.08 h after single oral dose of 50 mg/kg HP, mean ± SD, read-out: Blood drug concentration
  concentration at 0.08 h: 7.5 ± 2.94 µM
[3]; 0.25 h after single oral dose of 50 mg/kg HP, mean ± SD, read-out: Blood drug concentration
  concentration at 0.25 h: 14.2 ± 3.71 µM
[3]; 0.5 h after single oral dose of 50 mg/kg HP, mean ± SD, read-out: Blood drug concentration
  concentration at 0.5 h: 12.6 ± 2.12 µM
[3]; 1 h after single oral dose of 50 mg/kg HP, mean ± SD, read-out: Blood drug concentration
  concentration at 1 h: 7.41 ± 1.53 µM
[3]; 1.5 h after single oral dose of 50 mg/kg HP, mean ± SD, read-out: Blood drug concentration
  concentration at 1.5 h: 4.44 ± 0.89 µM
[3]; 2 h after single oral dose of 50 mg/kg HP, mean ± SD, read-out: Blood drug concentration
  concentration at 2 h: 3.64 ± 0.94 µM
[3]; 3 h after single oral dose of 50 mg/kg HP, mean ± SD, read-out: Blood drug concentration
  concentration at 3 h: 2.37 ± 3.51 µM
[3]; 4 h after single oral dose of 50 mg/kg HP, mean ± SD, read-out: Blood drug concentration
  concentration at 4 h: 1.16 ± 1.11 µM
[3]; 8 h after single oral dose of 50 mg/kg HP, mean ± SD, read-out: Blood drug concentration
  concentration at 8 h: 0.17 ± 0.22 µM
[3]; 12 h after single oral dose of 50 mg/kg HP, mean ± SD, read-out: Blood drug concentration
  concentration at 12 h: 0.05 ± 0.02 µM
[3]; elimination half-life, plasma, single oral dose of 50 mg/kg HP
  half-life: 1.55 h
[3]; [4]
  AUC(0-inf): 23.4 µM·h
  AUC(0-t): 23.3 µM·h
  Cmax: 14.2 µM
  Tmax: 0.25 h
[3]; plasma, single oral dose of 50 mg/kg HP, read-out: MRT(0−t)
  MRT last: 1.75 h
[3]; plasma, single oral dose of 50 mg/kg HP, read-out: MRT(0−∞)
  MRT inf: 1.81 h
